Structures can show the parent of a compound that is named as a salt.
How the values were obtained:
NK-2 receptors [1] = target: T1, NK-2 receptors (Rattus norvegicus, UniProt P16610); assay: Binding to NK-2 receptors (inhibition of radioactive 125I-neurokinin A binding); type: Fischer strain male rats (duodenum membranes); details: rat duodenum membrane; 125I-neurokinin A 1×10^-9 M; 90 min, room temperature; read-out: IC50 of drugs in binding of radioactive neurokinin A
T1 construct: Duodenums isolated from Fischer strain male rats were homogenized; from tissue; host or cells: duodenum membranes of male Fischer rats
T1 sequence (P16610 1-390): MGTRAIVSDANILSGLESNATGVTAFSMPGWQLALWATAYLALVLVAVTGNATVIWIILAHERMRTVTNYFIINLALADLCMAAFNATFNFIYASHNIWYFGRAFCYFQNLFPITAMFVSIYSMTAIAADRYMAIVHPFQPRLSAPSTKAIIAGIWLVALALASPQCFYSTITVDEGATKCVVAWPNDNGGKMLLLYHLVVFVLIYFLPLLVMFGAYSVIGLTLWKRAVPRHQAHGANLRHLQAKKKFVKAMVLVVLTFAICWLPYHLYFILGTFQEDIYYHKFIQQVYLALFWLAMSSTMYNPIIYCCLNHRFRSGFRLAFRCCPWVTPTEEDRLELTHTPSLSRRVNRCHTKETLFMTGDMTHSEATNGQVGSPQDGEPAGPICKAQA
Method: Duodenums isolated from Fischer strain male rats were homogenized in 50 mM Tris-hydrochloric acid buffer (pH 7.4) containing saccharose (100 mg/ml) and ethylenediaminetetraacetic acid (1 mM), and the resulting homogenate was centrifuged at 48,000 g and 4° C. for 20 minutes. The pellet thus obtained was washed three times with 10 times as much 50 mM Tris-hydrochloric acid buffer (pH 7.4) containing KCl (300 mM) and ethylenediaminetetraacetic acid (10 mM) as the pellet by volume, and the resulting membrane preparation was suspended in 10 times as much 50 mM Tris-hydrochloric acid buffer (pH 7.4) as the membrane preparation by volume and stored at -80° C. until use. The membrane preparation (20 mg/ml) was incubated together with a radioactive ligand ^125 I-neurokinin A (1×10^-9 M) at room temperature for 90 minutes in the presence of each drug or a solvent therefor in 50 mM Tris-hydrochloricacid buffer (pH 7.4) containing bovine serum albumin (10 mg/ml), bacitracin (40 μg/ml), leupeptin (4 μg/ml), chymostatin (50 μg/ml), antipain (1×10^-4 M) and MnCl2 (1 mM). […] Then, radioactivity in the filter was measured with a gamma counter. The 50% inhibitory concentration (IC50) of the drug was determined by means of a regression line by considering radioactivity in the presence of Nle10 neurokinin A (4-10) (3×10^-6 M) to be due to nonspecific binding, and measuring the rate of inhibition of specific binding by the drug by carrying out a control experiment using the solvent alone.

NK-3 receptors = target: T2, NK-3 receptors (Cavia porcellus, UniProt P30098); assay: Antagonism for NK-3 receptors (senktide induced contraction of isolated ileum); type: cell-based, Hartley strain male guinea pigs; details: guinea pig ileum; senctide 1×10^-9 M; 35 min incubation; read-out: IC50 of a drug on senctide induced contraction
T2 construct: the ileums were isolated; from tissue; host or cells: isolated ileum of male Hartley guinea pigs
T2 sequence (P30098 1-440): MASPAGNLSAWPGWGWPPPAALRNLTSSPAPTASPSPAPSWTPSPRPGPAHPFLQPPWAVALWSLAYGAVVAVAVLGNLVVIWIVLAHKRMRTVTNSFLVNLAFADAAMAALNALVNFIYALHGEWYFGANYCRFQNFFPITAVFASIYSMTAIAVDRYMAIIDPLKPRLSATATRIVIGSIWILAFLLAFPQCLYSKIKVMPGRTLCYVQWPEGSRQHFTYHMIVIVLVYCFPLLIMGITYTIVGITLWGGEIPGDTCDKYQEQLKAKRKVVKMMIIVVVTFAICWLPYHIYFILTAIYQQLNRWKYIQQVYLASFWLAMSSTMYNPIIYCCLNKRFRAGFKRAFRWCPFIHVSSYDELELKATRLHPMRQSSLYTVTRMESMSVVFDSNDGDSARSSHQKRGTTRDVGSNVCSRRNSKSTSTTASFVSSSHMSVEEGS
Method: Hartley strain male guinea pigs were killed by a blow on the head and blood-letting, and the ileums were isolated. A specimen of about 3 cm in length was prepared and then suspended at a tension of 0.5 gw in a magunus bath with an internal volume of 15 ml containing Krebs-Henseleit solution of 37° C. while introducing a mixed gas of 95% O2 and 5% CO2 into the bath. As the Krebs-Henseleit solution, that containing atropine (1×10^-6 M) and indomethacin (5×10^-6 M) was used for preventing the participation of intrinsic acetylcholine and prostaglandins. Senctide (1×10^-9 M), a specific stimulating agent for NK-3 receptors was repeatedly allowed to act on the specimen at intervals of 50 minutes. After the percentage of contraction due to senctide became constant, a drug was added to the solution to each of various concentrations, followed by incubation for 35 minutes, and senctide was allowed to act on the specimen again. The rate of inhibition by the drug was determined relative to the percentage of contraction immediately before the addition of the drug, and the 50% inhibitory concentration (IC50) was determined by means of a regression line.

NK-2 receptors [2] = assay: Inhibitory effect on bronchoconstriction caused by stimulation of NK-2 receptors (Nle10 neurokinin A (4-10)); type: in vivo, Hartley strain male guinea pigs
Method: There were used non-treated Hartley strain male guinea pigs and Hartley strain male guinea pigs received to active sensitization by subcutaneous administration of 30 mg/kg of ovalbumin 14 to 21 days before. The guinea pigs were anesthetized with pentobarbital and a tube was inserted into the trachea of each guinea pig. The guinea pigs were subjected to positive pressure respiration by means of an artificial respiratory apparatus at 10 ml/kg and 60 times/minute. The pressure in the edge of the tube in the trachea was measured as an indication of bronchoconstriction. Spontaneous respiration was inhibited by administering succinylcholine. The non-treated guinea pigs were repeatedly and intravenously injected with 2 nmol/kg of Nle10 neurokinin A (4-10), a specific stimulating agent for NK-2 receptors at intervals of 10 minutes. After the bronchoconstriction thus caused became stable, each drug was administered intravenously, orally or in duodenum. Nle10 neurokinin A (4-10) was intravenously injected again 3 minutes after the intravenous administration or 50 minutes after the oral administration or the administration in duodenum. The rate of inhibition by the drug was determined relative to the bronchoconstriction before the drug administration.

## CN(CC(CCN1CCc2nc3c(cc2C1)CCCC3)c1ccc(Cl)c(Cl)c1)C(=O)c1ccccc1 (single isomer, unassigned) [Example 25, 2-[(-)-4-(N-benzoyl-N-methyl)amino-3-(3,4-dichlorophenylbutyll-1,2,3,4,6,7,8,9-octahydro-benzo[b][1,6]naphthyridine fumarate]
NK-2 receptors [1]
  IC50: 56 nM
NK-3 receptors
  IC50: 180 nM
NK-2 receptors [2]; 1 μmol/kg intravenous, 3 min after administration
  Inhibition (rate), stimulation of NK-2 receptors: 94.2%
NK-2 receptors [2]; 8 μmol/kg oral, 50 min after administration
  Inhibition (rate), stimulation of NK-2 receptors: 67.2%
